Key:
[1] = tested on: Caco-2; assay: relative viability EC50 (midpoint between 100% and the lowest measured viability); higher = less toxic; details: 72 h
[2] = tested on: Vero E6; assay: as above; details: 72 h
[3] = tested on: U2OS; assay: as above; details: 72 h
[4] = tested on: HepG2; assay: as above; details: 72 h
[5] = tested on: Calu-3; assay: as above; details: 72 h
[6] = tested on: Caco-2; assay: drug sensitivity score (DSS) for viability; higher = more toxic; extreme values may be limits of the assay; details: 72 h
[7] = tested on: Vero E6; assay: as above; details: 72 h
[8] = tested on: U2OS; assay: as above; details: 72 h
[9] = tested on: HepG2; assay: as above; details: 72 h
[10] = tested on: Calu-3; assay: as above; details: 72 h
[11] = tested on: A549-ACE2 infected with SARS-CoV-2; assay: morphology score (similarity to uninfected cells); higher = more like uninfected cells; details: 24 h
[12] = tested on: A549-ACE2; assay: drug-induced phospholipidosis relative to tamoxifen; higher = more phospholipidosis
[13] = tested on: A549-ACE2 infected with SARS-CoV-2; assay: SARS-CoV-2 infection rate relative to DMSO; higher = more infection; details: 24 h
[14] = tested on: A549-ACE2 infected with SARS-CoV-2; assay: cell count relative to DMSO; higher = less toxic; details: 24 h
[15] = tested on: Caco-2; assay: cell viability relative to DMSO; higher = less toxic; details: 72 h
[16] = tested on: Vero E6; assay: as above; details: 72 h
[17] = tested on: U2OS; assay: as above; details: 72 h
[18] = tested on: HepG2; assay: as above; details: 72 h
[19] = tested on: Calu-3; assay: as above; details: 72 h

C=C1C(=O)O[C@@H]2/C=C(\C)CC/C=C(\C)CC[C@@H]12 [costunolide]
Details | drug sensitivity score | relative viability EC50 [µM]
[1] | – | > 10
[2] | – | > 10
[3] | – | > 10
[4] | – | > 10
[5] | – | > 10
[6] | 0.9 | –
[7] | 0 | –
[8] | 0 | –
[9] | 0 | –
[10] | 0 | –

Details | SARS-CoV-2 infection rate, [13] [%] | cell count, [14] [%] | cell viability, [15] [%] | cell viability, [16] [%] | cell viability, [17] [%] | cell viability, [18] [%] | cell viability, [19] [%] | morphology score, [11]
1 nM | – | – | 96.5 | 98.6 | 96.3 | 99.7 | 117 | –
10 nM | – | – | 92.8 | 91.9 | 99.8 | 108 | 102 | –
100 nM | – | – | 91.1 | 99.1 | 94.3 | 92.9 | 98.7 | –
0.3 µM | 103 | 104 | – | – | – | – | – | 0.19
1000 nM | – | – | 86.6 | 97.8 | 96.8 | 97.3 | 94.5 | –
3 µM | 104 | 97 | – | – | – | – | – | -0.19
10 µM | 106 | 99 | – | – | – | – | – | -0.21
10000 nM | – | – | 87.1 | 93.4 | 94.7 | 91.5 | 105 | –
30 µM | 66 | 70 | – | – | – | – | – | 0.15

drug-induced phospholipidosis [%], [12]
Details | 0.3 µM | 0.833333 µM | 3.33333 µM | 6.66667 µM | 10 µM | 30 µM
24 h | 0.39 | -3.23 | 0.77 | 4.32 | 10.4 | 39.6
48 h | 2.36 | -2.51 | 0.025 | 1.2 | 4.57 | 14.4
72 h | 2.1 | -1.84 | -1.2 | -0.442 | 1.25 | 9.89

CC(C)C[C@H](NC(=O)CNC(=O)c1cc(Cl)ccc1Cl)B1OC(=O)C(CC(=O)O)(CC(=O)O)O1 [ixazomib-citrate]
Details | drug sensitivity score | relative viability EC50 [µM]
[4] | – | 0.358
[6] | 25.9 | –
[7] | 19.6 | –
[8] | 22.4 | –
[9] | 17.2 | –
[10] | 25.5 | –

Details | SARS-CoV-2 infection rate, [13] [%] | cell count, [14] [%] | cell viability, [15] [%] | cell viability, [16] [%] | cell viability, [17] [%] | cell viability, [18] [%] | cell viability, [19] [%] | morphology score, [11]
1 nM | – | – | 105 | 106 | 107 | 106 | 107 | –
10 nM | – | – | 103 | 102 | 106 | 107 | 103 | –
0.1 µM | 81 | 97 | – | – | – | – | – | 0.41
100 nM | – | – | 22.9 | 72.5 | 69.6 | 98 | 27.9 | –
0.3 µM | 85 | 74 | – | – | – | – | – | 0.25
1 µM | 47 | 69 | – | – | – | – | – | 0.3
1000 nM | – | – | 6.1 | 11.5 | 0.4 | 6.3 | 5.6 | –
3 µM | 43 | 60 | – | – | – | – | – | 0.28
10000 nM | – | – | 7 | 4.8 | -0.3 | 0.3 | 4.8 | –

Details | drug-induced phospholipidosis [%]
[12], 0.3 µM, 24 h | 5.51

C=C1C(=O)O[C@@H]2[C@H]3O[C@]3(C)CC/C=C(\C)CC[C@@H]12 [parthenolide-(alternate-stereo)]
Details | drug sensitivity score | relative viability EC50 [µM]
[1] | – | 2.99
[3] | – | 2.94
[4] | – | 2.48
[6] | 3.07 | –
[7] | 2.37 | –
[8] | 5.23 | –
[9] | 5.27 | –
[10] | 0.733 | –

Details | SARS-CoV-2 infection rate, [13] [%] | cell count, [14] [%] | cell viability, [15] [%] | cell viability, [16] [%] | cell viability, [17] [%] | cell viability, [18] [%] | cell viability, [19] [%] | morphology score, [11]
1 nM | – | – | 98.5 | 102 | 100 | 102 | 102 | –
10 nM | – | – | 95.8 | 99.7 | 101 | 95.7 | 108 | –
0.1 µM | 101 | 101 | – | – | – | – | – | 0.0167
100 nM | – | – | 96.8 | 102 | 99.4 | 103 | 97.3 | –
0.3 µM | 99.3 | 102 | – | – | – | – | – | 0.157
1 µM | 104 | 100 | – | – | – | – | – | -0.0567
1000 nM | – | – | 98.67 | 102 | 97.7 | 94.2 | 109 | –
3 µM | 105 | 97.7 | – | – | – | – | – | -0.3
10000 nM | – | – | 45.4 | 52.3 | 12.2 | 22.5 | 128 | –

drug-induced phospholipidosis [%], [12]
Details | 0.3 µM | 0.833333 µM | 3.33333 µM | 6.66667 µM | 10 µM
24 h | 1.51 | 0.313 | 6.15 | 18.1 | 24
48 h | 1.04 | -0.06 | 2.1 | 11.9 | 16.9
72 h | 3.01 | -1.59 | -0.616 | 4.96 | 9.42

FC(F)(F)c1ccc(CNc2ccc(Cc3c[nH]c4ncc(Cl)cc34)cn2)cn1 [pexidartinib]
Details | drug sensitivity score | relative viability EC50 [µM]
[1] | – | > 10
[2] | – | > 10
[3] | – | > 10
[4] | – | > 10
[5] | – | > 10
[6] | 0 | –
[7] | 0 | –
[8] | 0 | –
[9] | 1.2 | –
[10] | 0 | –

Details | SARS-CoV-2 infection rate, [13] [%] | cell count, [14] [%] | cell viability, [15] [%] | cell viability, [16] [%] | cell viability, [17] [%] | cell viability, [18] [%] | cell viability, [19] [%] | morphology score, [11]
1 nM | – | – | 81.7 | 99.7 | 94.2 | 107 | 108 | –
10 nM | – | – | 95.7 | 96.4 | 100 | 92.2 | 108 | –
100 nM | – | – | 98.2 | 103 | 97.9 | 105 | 97.6 | –
0.3 µM | 104 | 95 | – | – | – | – | – | -0.17
1000 nM | – | – | 94.6 | 95.3 | 102 | 94.5 | 102 | –
3 µM | 102 | 101 | – | – | – | – | – | 0.07
10 µM | 103 | 101 | – | – | – | – | – | 0.25
10000 nM | – | – | 94.5 | 113 | 96.8 | 80.7 | 90 | –
30 µM | 67 | 92 | – | – | – | – | – | 0.46

drug-induced phospholipidosis [%], [12]
Details | 0.3 µM | 0.833333 µM | 3.33333 µM | 6.66667 µM | 10 µM | 30 µM
24 h | 1.33 | -1.52 | 1.3 | 5.68 | 7.59 | 11.6
48 h | 2.9 | -0.74 | 2.56 | 7.51 | 9.31 | 14.4
72 h | 4.54 | -1.68 | 3.26 | 9.4 | 15.6 | 20.7
